For experiment [1], the system named is Spontaneously hypertensive rats (SHR). Briefly: Antihypertensive activity in conscious spontaneously hypertensive rats (SHR), iv. The following applies: Rattus norvegicus, 5 min; for change in vivo at 10 mg/kg / change in vivo at 1 mg/kg / change in vivo at 3 mg/kg: 5 minutes after dose, cumulative dosing, read-out: % change in mean arterial pressure; for ED25: read-out: ED25 (mean arterial pressure). The class given is in vivo. The procedure:
After a 2 day recovery from surgery, three baseline blood pressure measurements were made at 5 min intervals in conscious SHR. Compounds to be tested or vehicle were then administered intravenously in a dose-dependent manner (0.3-10 mg base/kg) while arterial pressure was recorded continuously on a polygraph. The mean arterial pressure response was measured 5 minutes after the administration of each dose of the test compound and the next dose given in a cumulative dose fashion. The response to each dose of the test compound was calculated as the difference from the mean of the three baseline measurements.

Experiment [2] concerns cGMP-PDE I. Briefly: cGMP-PDE I inhibitory activity (cyclic nucleotide hydrolysis, isolated PDE isozyme). The note with it: for IC50: values marked * are from two separate experimental runs. In kind it is biochemical, various animal species and man. The procedure:
Multiple isozymic forms of cyclic nucleotide phosphodiesterase (PDE) have been identified in mammalian cells. […] Elevation of intracellular cGMP in vascular smooth muscle triggers a cascade of events that leads to a reduction in muscle tone while elevations in renal tubule cell cGMP stimulates natriuresis and diuresis. Vascular smooth muscle and renal cells contain a phosphodiesterase isozyme that has a low Km (1 μM) for the hydrolysis of cGMP. This isozyme has been referred to as the cGMP-PDE or cGMP-PDE I since it elutes from an anion-exchange sepharose resin in the first peak of PDE activity at a sodium acetate concentration between 150-200 mM. Thus inhibition of the cGMP-PDE isozyme is a viable subcellular mechanism by which increases in cGMP can produce a reduction in total peripheral resistance and a stimulation of natriuresis and diuresis. The development of cGMP-PDE inhibitors represents an approach for the discovery of agents useful for treating heart failure and hypertension. For example, compounds having high inhibitory potency for the cGMP-PDE are expected to lower blood pressure and induce natriuresis and diuresis.
The cGMP-PDE and other PDE isozymes were isolated from cardiovascular tissues (heart and aorta) of various animal species and man by anion-exchange and affinity chromatography as described by Silver et al., Sec. Messeng. Phos. 13:13-25, 1991; PDE activity, in the presence and absence of test compounds was determined essentially as described by Thompson et al., Adv. Cyclic Nucleotide Res. 10:69-92. To determine the potency and selectivity of compounds as PDE inhibitors, compounds are screened for their effect on cyclic nucleotide hydrolysis at 10 μM. If ≥50% inhibition of PDE activity is observed, an IC50 value (concentration of compound causing 50% reduction in PDE activity) and corresponding 95% confidence intervals are generated. The IC50 values are calculated from concentration-response curves as described by Tallarida and Murray, Manual of Pharmacologic Calculations with Computer Programs, Procedure 8, Graded Dose-response, pp. 14-19, Springer-Verlag, N.Y., 1981.

The test system of experiment [3] is Spontaneously hypertensive rats. Briefly: Procedure 2: in vivo reversal of nitroglycerin tolerance, mean arterial pressure. Details: species or system rat (spontaneously hypertensive rats). The note with it: for change in MAP in response to nitroglycerin injection: nitroglycerin 10 μg/kg i.v. On the procedure: Spontaneously hypertensive rats (16-19 weeks of age) were made nitroglycerin tolerant by injecting […] nitroglycerin s.c., 3-times/day for 3 days. While conscious and freely moving, the decrease in mean arterial pressure (MAP) in response to a challenge dose of nitroglycerin (10 μg/kg, i.v. bolus) was utilized to confirm tolerance.

The test system of experiment [4] is aortic rings (aortic smooth muscle strips). Briefly: Procedure 1: in vitro reversal of nitroglycerin tolerance, relaxation of aortic rings. The class given is cell-based, Male Sprague-Dawley rats. The following applies: Rattus norvegicus, n=8, mean ±S.E.M. The procedure: Male Sprague-Dawley rats (250-350 g body weight) were deeply anesthetized with pentobarbital (50 mg/kg) and then euthanized by exsanguination. The thoracic and abdominal cavities were immediately opened and the aorta was removed. In order to remove the influence of endogenous endothelial relaxing factor (EDRF), the entire length of the aorta was functionally denuded of the endothelial layer by gently scraping the luminal surface with a solid polyethylene catheter. The effectiveness of this procedure was tested in each preparation at the end of the experiment by measuring the vasorelaxant response to 1 μM carbachol, a stimulator of EDRF release. […] Maximal change in contractile tension over a series of nine consecutive 10 minute intervals was recorded and expressed as percent relaxation relative to post pre-treatment, phenylephrine-induced tension. Mean EC50 values were calculated from percent relaxation of individual tissues using a statistical program according to Tallarida and Murray, (Manual of Pharmacologic Calculations with Computer Programs, Springer-Verlag, N.Y. 1987) and are expressed as mean ±S.E.M.

One may read the IC50 as the point on the concentration scale where inhibition reaches its midpoint. Low values mean higher potency, high ones lower potency. What is called EC50 is the concentration at which the effect is half-maximal.

“And” between values parts separate entries of the source, which are not always exact repeats. Equal entries are not always repeated.

Turning to `COc1ccc(Cc2[nH]n(C(C)(C)C)c3nc(-c4ccncc4)nc(=O)c2-3)cc1OC` [Example 4e, 1-tert-Butyl-3-(3,4-dimethoxybenzyl)-6-(4-pyridyl) pyrazolo[3,4-d]pyrimidin-4-one], the change in vivo at 10 mg/kg in experiment [1] was -2%. Also, the “Percent Inhibition cGMP-PDE I” value in experiment [2] (0.01 μM) was 69%. This molecule also displayed a half-maximal inhibitory concentration (IC50) in experiment [2] of 6 nM.
For `Cc1[nH]n(C2CCCC2)c2nc(-c3ccnc4ccccc34)nc(=O)c1-2` [Example 13b, 1-Cyclopentyl-3-methyl-6-(4-quinolinyl)-pyrazolo [3,4-d]-pyrimidin-4-one], in experiment [1], the change in vivo at 1 mg/kg is -17% and the change in vivo at 3 mg/kg was -14%. The 50% inhibitory concentration (IC50) in experiment [2] amounted to 97 nM.
`Cc1[nH]n(C2CCCC2)c2nc(-c3ccc4ncccc4c3)nc(=O)c1-2` [Example 14c, 1-Cyclopentyl-3-methyl-6-(6-quinolinyl)-pyrazolo [3,4-d]-pyrimidin-4-one]: the ED25 in experiment [1] came to 7.8 mg/kg. This molecule also had a half-maximal inhibitory concentration (IC50) in experiment [2] of 780 nM.
Regarding `CCc1nn(C2CCCC2)c2nc(-c3ccncc3)[nH]c(=O)c12` [Example 75], the ED25 in experiment [1] was determined as 1.7 mg/kg. Besides, the IC50 in experiment [2] was 450 nM and 370 nM.
Regarding `Cc1nn(C2CCCC2)c2nc(-c3ccncc3)[nH]c(=O)c12` [Example 83], the ED25 in experiment [1] is 1 mg/kg. In addition, in experiment [3] (1 mg/kg, i.v., threshold dose), the “change in MAP at threshold dose of the compound” value is on record as “approximately 10 mmHg”. Further, the “change in MAP in response to nitroglycerin injection after pretreatment with the compound” value in experiment [3] (nitroglycerin tolerant rats (n=12), compound 1 mg/kg i.v., then nitroglycerin 10 μg/kg) is on record as -35 mmHg. In addition, the IC50 in experiment [2] came to 370 nM.
Regarding `CC(C)(C)n1nc(Cc2ccccc2)c2c(=O)[nH]c(-c3ccncc3)nc21` [Example 90], the change in vivo at 1 mg/kg in experiment [1] is -6%.
With `Cc1nn(C(C)(C)C)c2nc(-c3ccncc3)[nH]c(=O)c12` [Example 93], the ED25 in experiment [1] is 6.5 mg/kg. This molecule gave a half-inhibitory concentration (IC50) in experiment [2] of 380 nM.
For `Cc1nn(C2CCCC2)c2nc(-c3cccnc3)[nH]c(=O)c12` [Example 98] the same measures were 4.1 mg/kg and 560 nM.
Consider `CCOc1cnccc1-c1nc2n(C3CCCC3)[nH]c(CC)c-2c(=O)n1` [Example 119d, 1-Cyclopentyl-3-ethyl-6-(3-ethoxy-4-pyridyl)pyrazolo[3,4-d]pyrimidin-4-one], for which, in experiment [1], the change in vivo at 3 mg/kg is -24%, the change in vivo at 10 mg/kg was -36% and the ED25 was found to be 4.8 mg/kg. Besides, the “Percent Inhibition cGMP-PDE I” value in experiment [2] (0.1 μM) is 90%. The molecule also came in with a 50% inhibitory concentration (IC50) in experiment [2] of 1.6 nM.
On to `CC(C)(C)n1[nH]c(Cc2ccncc2)c2c(=O)nc(-c3ccncc3)nc1-2` [Example 123d, 1-tert-butyl-3-(4-pyridylmethyl)-6-(4-pyridyl)-pyrazolo[3,4-d]pyrimidin-4-one], for which the change in vivo at 10 mg/kg in experiment [1] is -7%. In addition, the results for the “Percent Inhibition cGMP-PDE I” value in experiment [2] (0.1 μM) and in experiment [2] (1 μM) were 55% and 90%, respectively. For the same molecule, inhibition in experiment [2] was half-maximal at 120 nM (IC50).
For `CCc1nn(C2CCCC2)c2nc(-c3ccnc(OCCN4CCOCC4)c3)[nH]c(=O)c12` [Example 124c, hydrate], the change in vivo at 3 mg/kg in experiment [1] was -14%. Besides, in experiment [1], the change in vivo at 10 mg/kg was -24%. Moreover, the ED25 in experiment [1] turned out to be 10.1 mg/kg. In addition, the entries for the “Percent Inhibition cGMP-PDE I” value in experiment [2] (0.01 μM), in experiment [2] (0.1 μM) and in experiment [2] (1 μM) were 19%, 50% and 86%, respectively. In addition, in experiment [2], the IC50 worked out at 150 nM.
For `CCOc1cnccc1-c1nc2n(C3CCCC3)[nH]c(C(F)(F)F)c-2c(=O)n1` [Example 127c, 1-Cyclopentyl-3-trifluoromethyl-6-(3-ethoxy-4-pyridyl)pyrazolo[3,4-d]pyrimidin-4-one], the change in vivo at 10 mg/kg in experiment [1] was -14%. Further, the figures for the “Percent Inhibition cGMP-PDE I” value in experiment [2] (0.01 μM) and in experiment [2] (0.1 μM) were 79% and 93%, respectively. For the same molecule, the IC50 in experiment [2] is 1.8 nM and 2.5 nM.
For `CCc1[nH]n(C2CCCC2)c2nc(-c3ccncc3OC)nc(=O)c1-2` [Example 128c, 1-Cyclopentyl-3-ethyl-6-(3-methoxy-4-pyridyl)pyrazolo[3,4-d]pyrimidin-4-one], in experiment [1], the change in vivo at 10 mg/kg is -48% and the ED25 is 0.23 mg/kg. Moreover, in experiment [2] (0.01 μM), the “Percent Inhibition cGMP-PDE I” value was 54%. For the same molecule, in experiment [2] (0.1 μM), the “Percent Inhibition cGMP-PDE I” value was 71%. The IC50 in experiment [2] turned out to be 36 nM.
For `CCc1[nH]n(C2CCCC2)c2nc(-c3ccncc3OC(C)CC)nc(=O)c1-2` (stereo not shown) [Example 132b, 1-Cyclopentyl-3-ethyl-6-(3-sec-butoxy-4-pyridyl)pyrazolo[3,4-d]pyrimidin-4-one], in experiment [1], the change in vivo at 1 mg/kg is -9%, the change in vivo at 3 mg/kg was -8% and the change in vivo at 10 mg/kg is -12%. In addition, the “Percent Inhibition cGMP-PDE I” value in experiment [2] (0.01 μM) came out at 90%.
As to `O=[N+]([O-])OCC(CO[N+](=O)[O-])O[N+](=O)[O-]` [nitroglycerin, reference compound], the EC50 worked out at 1550 ± 637 nM in experiment [4] (1 h, tolerant strips, pre-exposed to 550 μM nitroglycerin for 60 minutes, p <0.01) and 77 ± 16 nM in experiment [4] (vehicle treated, control strips). Besides, the “change in MAP in response to nitroglycerin injection” value in experiment [3] (non-tolerant rats (n=6)) was -19 mmHg; in experiment [3] (tolerant rats (n=11)), -11 mmHg.
